Values belong to the molecule of their own block, whether it stands above or below them.
Tests used:
Test in all cases: competitive isoTOP-ABPP
Assay type in all cases: binding
[1] = biological target: T1, ARL6IP1 ADP-ribosylation factor-like protein 6-interacting (Homo sapiens, UniProt Q15041); settings: for isoTOP-ABPP ratio (R) at liganded lysine Q15041_K188 / R value (DMSO/fragment) for probe 1 labeling / isoTOP-ABPP reactivity ratio at lysine Q15041_K188: 50 uM, in vitro; for isoTOP-ABPP ratio (R) at liganded lysine Q15041_K188: sol, 231; for R value (DMSO/fragment) for probe 1 labeling: Q15041_K188; for R value (DMSO/fragment) for probe 1 labeling / isoTOP-ABPP reactivity ratio at lysine Q15041_K188: 231 sol
T1 construct: isoTOP-ABPP experiments performed in cell lysates (in vitro); endogenous in cells; host or cells: soluble proteome of human cancer cell lines (MDA-MB-231; Ramos and Jurkat also prepared)
T1 sequence (Q15041 whole entry, the tested form may be a part): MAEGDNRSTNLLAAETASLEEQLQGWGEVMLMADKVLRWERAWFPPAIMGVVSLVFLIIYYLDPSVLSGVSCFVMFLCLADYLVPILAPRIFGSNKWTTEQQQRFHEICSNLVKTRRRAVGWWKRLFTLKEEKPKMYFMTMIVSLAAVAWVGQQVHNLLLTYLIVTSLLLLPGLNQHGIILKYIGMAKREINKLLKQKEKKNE
In short: (§1)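 Probe: STP-alkyne, 0.1 mM, 1 h RT, after fragment pretreatment of lysate (esters 50 μM; guanidinylators 100 μM). Tags: light = compound, heavy = DMSO, via CuAAC. Replicates averaged if SD <60% of mean; otherwise lowest ratio used when any R <4.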

[2] = biological target: T2, KIAA1033 WASH complex subunit 7 (Homo sapiens, UniProt Q2M389); settings: for R value (DMSO/fragment) for probe 1 labeling: Q2M389_K302; for R value (DMSO/fragment) for probe 1 labeling / isoTOP-ABPP ratio (R) at liganded lysine Q2M389_K302 / isoTOP-ABPP reactivity ratio at lysine Q2M389_K302: 50 uM, in vitro; for R value (DMSO/fragment) for probe 1 labeling / isoTOP-ABPP reactivity ratio at lysine Q2M389_K302: 231 sol; for isoTOP-ABPP ratio (R) at liganded lysine Q2M389_K302: sol, 231
T2 construct: isoTOP-ABPP experiments performed in cell lysates (in vitro); endogenous in cells; host or cells: soluble proteome of human cancer cell lines (MDA-MB-231; Ramos and Jurkat also prepared)
T2 sequence (Q2M389 1-1173): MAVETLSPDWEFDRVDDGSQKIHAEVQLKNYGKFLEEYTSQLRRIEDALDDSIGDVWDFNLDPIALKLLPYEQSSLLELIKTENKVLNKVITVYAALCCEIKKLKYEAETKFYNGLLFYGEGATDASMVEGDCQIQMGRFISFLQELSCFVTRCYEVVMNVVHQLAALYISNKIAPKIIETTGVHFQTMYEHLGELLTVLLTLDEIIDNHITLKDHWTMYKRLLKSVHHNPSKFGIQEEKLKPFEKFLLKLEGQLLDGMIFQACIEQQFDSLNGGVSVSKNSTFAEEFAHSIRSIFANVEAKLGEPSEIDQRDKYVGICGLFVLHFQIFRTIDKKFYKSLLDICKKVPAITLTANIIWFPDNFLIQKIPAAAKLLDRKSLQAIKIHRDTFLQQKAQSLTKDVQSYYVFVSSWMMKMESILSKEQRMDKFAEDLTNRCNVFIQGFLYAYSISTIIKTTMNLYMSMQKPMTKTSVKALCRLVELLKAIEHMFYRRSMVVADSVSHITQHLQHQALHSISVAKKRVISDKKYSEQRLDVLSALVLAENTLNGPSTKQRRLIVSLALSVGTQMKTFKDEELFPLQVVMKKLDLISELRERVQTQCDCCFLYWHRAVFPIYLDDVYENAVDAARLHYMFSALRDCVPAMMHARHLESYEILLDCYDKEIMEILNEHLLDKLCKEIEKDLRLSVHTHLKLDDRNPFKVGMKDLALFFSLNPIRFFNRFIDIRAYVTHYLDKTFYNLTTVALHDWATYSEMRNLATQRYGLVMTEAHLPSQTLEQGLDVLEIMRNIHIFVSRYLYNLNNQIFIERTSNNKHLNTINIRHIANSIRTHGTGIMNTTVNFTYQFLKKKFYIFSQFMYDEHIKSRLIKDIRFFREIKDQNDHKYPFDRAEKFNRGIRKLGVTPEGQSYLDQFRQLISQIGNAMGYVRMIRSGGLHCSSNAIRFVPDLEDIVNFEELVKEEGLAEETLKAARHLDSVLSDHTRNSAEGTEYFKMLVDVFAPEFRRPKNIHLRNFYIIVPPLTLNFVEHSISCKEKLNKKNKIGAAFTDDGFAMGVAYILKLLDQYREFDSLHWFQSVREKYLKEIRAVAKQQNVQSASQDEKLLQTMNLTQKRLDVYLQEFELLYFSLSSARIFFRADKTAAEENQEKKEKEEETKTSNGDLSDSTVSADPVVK
In short: as §1

[3] = biological target: T3, TSTA3 GDP-L-fucose synthase (Homo sapiens, UniProt Q13630); settings: for R value (DMSO/fragment) for probe 1 labeling: Q13630_K108; for R value (DMSO/fragment) for probe 1 labeling / isoTOP-ABPP ratio (R) at liganded lysine Q13630_K108 / isoTOP-ABPP reactivity ratio at lysine Q13630_K108: 50 uM, in vitro; for R value (DMSO/fragment) for probe 1 labeling / isoTOP-ABPP reactivity ratio at lysine Q13630_K108: 231 sol; for isoTOP-ABPP ratio (R) at liganded lysine Q13630_K108: sol, 231
T3 construct: isoTOP-ABPP experiments performed in cell lysates (in vitro); endogenous in cells; host or cells: soluble proteome of human cancer cell lines (MDA-MB-231, Ramos, Jurkat)
T3 sequence (Q13630 whole entry, the tested form may be a part): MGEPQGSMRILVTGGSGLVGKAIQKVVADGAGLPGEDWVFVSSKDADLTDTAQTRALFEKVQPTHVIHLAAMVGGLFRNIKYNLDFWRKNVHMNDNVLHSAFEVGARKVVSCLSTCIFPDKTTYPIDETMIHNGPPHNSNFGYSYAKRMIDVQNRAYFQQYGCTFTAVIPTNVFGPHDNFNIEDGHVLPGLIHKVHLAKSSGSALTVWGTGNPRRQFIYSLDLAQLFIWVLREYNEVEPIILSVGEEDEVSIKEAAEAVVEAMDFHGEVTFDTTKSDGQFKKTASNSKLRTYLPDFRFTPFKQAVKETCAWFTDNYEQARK
In short: as §1

isoTOP-ABPP ratio, lysine Q15041_K188 ([1]; 50 uM_231_sol_in vitro): 3.5
SMILES: O=C(Oc1c(F)c(F)cc(F)c1F)c1cc(C(F)(F)F)cc(C(F)(F)F)c1 [fragment 48, 2,3,5,6-Tetrafluorophenyl 3,5-bis(trifluoromethyl)benzoate]

R value (DMSO/fragment) for probe 1 labeling [2]: 0.8
R value (DMSO/fragment) for probe 1 labeling [3]: 0.8
SMILES: O=C(CCc1cn(-c2ccccc2)nc1-c1ccccc1)Oc1c(F)c(F)c(F)c(F)c1F [fragment 19, Pentafluorophenyl 3-(1,3-diphenyl-1H-pyrazol-4-yl)propanoate]

SMILES: O=C(Oc1ccc([N+](=O)[O-])cc1[N+](=O)[O-])C(c1ccccc1)(c1ccccc1)c1ccccc1 [fragment 42, 2,4-Dinitrophenyl 2,2,2-triphenylacetate]
isoTOP-ABPP ratio (R) at liganded lysine Q15041_K188 [1]: 1.1
isoTOP-ABPP ratio (R) at liganded lysine Q13630_K108 [3]: 1.0

R value (DMSO/fragment) for probe 1 labeling [1]: 3.9
R value (DMSO/fragment) for probe 1 labeling [3]: 1.0
SMILES: O=C(Oc1c(F)c(F)c(F)c(F)c1F)c1cc(C(F)(F)F)cc(C(F)(F)F)c1 [fragment 21, Pentafluorophenyl 3,5-bis(trifluoromethyl)benzoate]

SMILES: CC(C)(C)OC(=O)NCCCC(=O)Oc1ccc([N+](=O)[O-])cc1[N+](=O)[O-] [fragment 41, 2,4-Dinitrophenyl 4-((tert-butoxycarbonyl)amino)butanoate]
isoTOP-ABPP ratio (R) at liganded lysine Q15041_K188 [1]: 1.3
isoTOP-ABPP ratio (R) at liganded lysine Q2M389_K302 [2]: 1.5
isoTOP-ABPP ratio (R) at liganded lysine Q13630_K108 [3]: 1.3

isoTOP-ABPP ratio, lysine Q15041_K188 ([1]; 50 uM_231_sol_in vitro): 3.5
SMILES: O=C(Oc1c(F)c(F)c(C(F)(F)F)c(F)c1F)c1cc(C(F)(F)F)cc(C(F)(F)F)c1 [fragment 47, 2,3,5,6-Tetrafluoro-4-(trifluoromethyl)phenyl 3,5-bis(trifluoromethyl)benzoate]

SMILES: O=C(CCc1cn(-c2ccccc2)nc1-c1ccccc1)Oc1ccc([N+](=O)[O-])cc1[N+](=O)[O-] [fragment 29, 2,4-Dinitrophenyl 3-(1,3-diphenyl-1H-pyrazol-4-yl)propanoate]
isoTOP-ABPP reactivity ratio at lysine Q2M389_K302 [2]: 1.1
isoTOP-ABPP reactivity ratio at lysine Q13630_K108 [3]: 1.1

isoTOP-ABPP reactivity ratio at lysine Q2M389_K302 [2]: 1.8
isoTOP-ABPP reactivity ratio at lysine Q13630_K108 [3]: 1.4
SMILES: O=C(CCc1coc2cc(F)ccc2c1=O)Oc1c(F)c(F)c(F)c(F)c1F [fragment 26, Pentafluorophenyl 3-(7-fluoro-4-oxo-4H-chromen-3-yl)propanoate]

isoTOP-ABPP ratio, lysine Q2M389_K302 ([2]; 50 uM_231_sol_in vitro): 1.5
SMILES: NC(=O)c1cc(C(F)(F)F)cc(C(F)(F)F)c1 [fragment 51, reference compound]

isoTOP-ABPP reactivity ratio at lysine Q13630_K108 [3]: 4.6
SMILES: O=C(CN1C(=O)c2ccccc2C1=O)Oc1c(F)c(F)c(F)c(F)c1F [fragment 27, Pentafluorophenyl 2-(1,3-dioxoisoindolin-2-yl)acetate]

SMILES: Cn1cc(CC(=O)Oc2ccc([N+](=O)[O-])cc2[N+](=O)[O-])c2ccccc21 [fragment 32, 2,4-Dinitrophenyl 2-(1-methyl-1H-indol-3-yl)acetate]
isoTOP-ABPP reactivity ratio at lysine Q15041_K188 [1]: 5.9

SMILES: O=C(CCc1ccc2c(c1)OCO2)Oc1ccc([N+](=O)[O-])cc1[N+](=O)[O-] [fragment 45, 2,4-Dinitrophenyl 3-(benzo[d][1,3]dioxol-5-yl)propanoate]
isoTOP-ABPP ratio, lysine Q15041_K188 ([1]; 50 uM_231_sol_in vitro): 2.2
isoTOP-ABPP ratio, lysine Q2M389_K302 ([2]; 50 uM_231_sol_in vitro): 1.2
isoTOP-ABPP ratio, lysine Q13630_K108 ([3]; 50 uM_231_sol_in vitro): 20.0

SMILES: O=C(CCc1coc2cc(F)ccc2c1=O)Oc1ccc([N+](=O)[O-])cc1[N+](=O)[O-] [fragment 36, 2,4-Dinitrophenyl 3-(7-fluoro-4-oxo-4H-chromen-3-yl)propanoate]
isoTOP-ABPP ratio (R) at liganded lysine Q15041_K188 [1]: 1.6
isoTOP-ABPP ratio (R) at liganded lysine Q2M389_K302 [2]: 1.2

SMILES: O=C(CC12CC3CC(CC(C3)C1)C2)Oc1ccc([N+](=O)[O-])cc1[N+](=O)[O-] [fragment 38, 2,4-Dinitrophenyl 2-(adamantan-1-yl)acetate]
isoTOP-ABPP ratio (R) at liganded lysine Q13630_K108 [3]: 0.9

R value (DMSO/fragment) for probe 1 labeling [2]: 1.5
R value (DMSO/fragment) for probe 1 labeling [3]: 1.0
SMILES: COc1cc(CCC(=O)Oc2c(F)c(F)c(F)c(F)c2F)cc(OC)c1OC [fragment 23, Pentafluorophenyl 3-(3,4,5-trimethoxyphenyl)propanoate]

R value (DMSO/fragment) for probe 1 labeling [2]: 3.6
R value (DMSO/fragment) for probe 1 labeling [3]: 1.1
SMILES: Cn1cc(CC(=O)Oc2c(F)c(F)c(F)c(F)c2F)c2ccccc21 [fragment 22, Pentafluorophenyl 2-(1-methyl-1H-indol-3-yl)acetate]

SMILES: O=C(Oc1ccc([N+](=O)[O-])cc1[N+](=O)[O-])c1ccc2ccccc2n1 [fragment 35, 2,4-Dinitrophenyl quinoline-2-carboxylate]
isoTOP-ABPP ratio (R) at liganded lysine Q15041_K188 [1]: 1.4
isoTOP-ABPP ratio (R) at liganded lysine Q2M389_K302 [2]: 1.4

isoTOP-ABPP reactivity ratio at lysine Q15041_K188 [1]: 2.4
isoTOP-ABPP reactivity ratio at lysine Q2M389_K302 [2]: 1.0
isoTOP-ABPP reactivity ratio at lysine Q13630_K108 [3]: 0.6
SMILES: O=C(Oc1c(F)c(F)c(F)c(F)c1F)C1CCN(C(=O)OCc2ccccc2)CC1 [fragment 24, 1-Benzyl 4-(pentafluorophenyl) piperidine-1,4-dicarboxylate]

R value (DMSO/fragment) for probe 1 labeling [1]: 1.8
R value (DMSO/fragment) for probe 1 labeling [2]: 0.9
SMILES: O=C(Oc1c(F)c(F)c(F)c(F)c1F)C(c1ccccc1)c1ccccc1 [fragment 20, Pentafluorophenyl 2,2-diphenylacetate]

isoTOP-ABPP ratio, lysine Q15041_K188 ([1]; 100 uM_231_sol_in vitro): 3.4
isoTOP-ABPP ratio, lysine Q2M389_K302 ([2]; 100 uM_231_sol_in vitro): 5.3
isoTOP-ABPP ratio, lysine Q13630_K108 ([3]; 100 uM_231_sol_in vitro): 1.0
SMILES: CC(C)(C)OC(=O)N=C(NC(=O)OC(C)(C)C)n1cccn1 [fragment 50, reference compound]

SMILES: O=C(Oc1ccc([N+](=O)[O-])cc1[N+](=O)[O-])c1ccccc1Nc1cccc(C(F)(F)F)c1 [fragment 40, 2,4-Dinitrophenyl 2-((3-(trifluoromethyl)phenyl)amino)benzoate]
isoTOP-ABPP ratio (R) at liganded lysine Q2M389_K302 [2]: 0.9
isoTOP-ABPP ratio (R) at liganded lysine Q13630_K108 [3]: 0.9

SMILES: N#Cc1ccc(C(=O)Oc2ccc([N+](=O)[O-])cc2[N+](=O)[O-])cc1 [fragment 44, 2,4-Dinitrophenyl 4-cyanobenzoate]
isoTOP-ABPP ratio, lysine Q15041_K188 ([1]; 50 uM_231_sol_in vitro): 1.1
isoTOP-ABPP ratio, lysine Q2M389_K302 ([2]; 50 uM_231_sol_in vitro): 1.3

SMILES: O=C(Oc1ccc([N+](=O)[O-])cc1[N+](=O)[O-])C(c1ccccc1)c1ccccc1 [fragment 30, 2,4-Dinitrophenyl 2,2-diphenylacetate]
isoTOP-ABPP reactivity ratio at lysine Q2M389_K302 [2]: 1.6

SMILES: O=C(ON1C(=O)CCC1=O)c1cc(C(F)(F)F)cc(C(F)(F)F)c1 [fragment 46, 3,5-Bis(trifluoromethyl)benzoic acid NHS ester]
isoTOP-ABPP ratio, lysine Q15041_K188 ([1]; 50 uM_231_sol_in vitro): 1.2
isoTOP-ABPP ratio, lysine Q13630_K108 ([3]; 50 uM_231_sol_in vitro): 2.7

SMILES: O=C(Oc1ccc([N+](=O)[O-])cc1[N+](=O)[O-])c1ccc(Oc2ccccc2)cc1 [fragment 39, 2,4-Dinitrophenyl 4-phenoxybenzoate]
isoTOP-ABPP ratio (R) at liganded lysine Q15041_K188 [1]: 1.7
isoTOP-ABPP ratio (R) at liganded lysine Q2M389_K302 [2]: 1.2

SMILES: O=C(Oc1ccc([N+](=O)[O-])cc1[N+](=O)[O-])c1ccc(-c2ccccc2)cc1 [fragment 37, 2,4-Dinitrophenyl [1,1′-biphenyl]-4-carboxylate]
isoTOP-ABPP ratio (R) at liganded lysine Q15041_K188 [1]: 1.8
isoTOP-ABPP ratio (R) at liganded lysine Q2M389_K302 [2]: 0.9
isoTOP-ABPP ratio (R) at liganded lysine Q13630_K108 [3]: 2.9

SMILES: CC(=O)Oc1ccc([N+](=O)[O-])cc1[N+](=O)[O-] [fragment 43, 2,4-Dinitrophenyl acetate]
isoTOP-ABPP ratio (R) at liganded lysine Q15041_K188 [1]: 1.4

isoTOP-ABPP reactivity ratio at lysine Q13630_K108 [3]: 1.0
SMILES: CCn1cc(C(=O)Oc2c(F)c(F)c(F)c(F)c2F)c(=O)c2ccc(C)nc21 [fragment 28, Pentafluorophenyl 1-ethyl-7-methyl-4-oxo-1,4-dihydro-1,8-naphthyridine-3-carboxylate]
